Drawing on ChEMBL document CHEMBL1148378 (J Med Chem, 2004), this text covers Ki for four molecules.

One test deals with T1, Matrilysin (Homo sapiens, UniProt P09237).
T1 sequence (P09237 whole entry): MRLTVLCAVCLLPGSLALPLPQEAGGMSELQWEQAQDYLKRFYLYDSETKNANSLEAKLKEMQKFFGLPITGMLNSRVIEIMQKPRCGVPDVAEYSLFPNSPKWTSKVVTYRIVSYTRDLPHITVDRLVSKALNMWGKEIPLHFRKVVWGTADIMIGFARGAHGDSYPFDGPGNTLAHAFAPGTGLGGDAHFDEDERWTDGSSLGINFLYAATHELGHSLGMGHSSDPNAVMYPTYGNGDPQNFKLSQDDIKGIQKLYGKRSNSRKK
Description: Inhibition of Matrix metalloprotease-7.

The target in a further test is T2, Interstitial collagenase (Homo sapiens, UniProt P03956).
T2 sequence (P03956 whole entry): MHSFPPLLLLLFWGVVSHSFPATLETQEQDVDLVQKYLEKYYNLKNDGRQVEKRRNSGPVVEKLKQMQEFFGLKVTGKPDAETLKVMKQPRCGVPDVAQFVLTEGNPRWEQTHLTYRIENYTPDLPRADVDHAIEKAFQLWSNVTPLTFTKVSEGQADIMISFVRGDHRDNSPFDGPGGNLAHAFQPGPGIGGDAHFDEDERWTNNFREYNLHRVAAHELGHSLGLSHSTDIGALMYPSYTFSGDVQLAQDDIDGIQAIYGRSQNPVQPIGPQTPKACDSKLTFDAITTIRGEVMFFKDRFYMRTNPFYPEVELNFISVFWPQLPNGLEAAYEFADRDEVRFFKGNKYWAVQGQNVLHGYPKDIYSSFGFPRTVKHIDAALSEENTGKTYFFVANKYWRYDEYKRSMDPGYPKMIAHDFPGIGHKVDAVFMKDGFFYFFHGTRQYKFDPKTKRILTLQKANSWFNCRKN
Description: Inhibition of matrix metalloprotease-1.

The target in another test is T3, Stromelysin-3 (Mus musculus, UniProt Q02853).
T3 sequence (Q02853 whole entry): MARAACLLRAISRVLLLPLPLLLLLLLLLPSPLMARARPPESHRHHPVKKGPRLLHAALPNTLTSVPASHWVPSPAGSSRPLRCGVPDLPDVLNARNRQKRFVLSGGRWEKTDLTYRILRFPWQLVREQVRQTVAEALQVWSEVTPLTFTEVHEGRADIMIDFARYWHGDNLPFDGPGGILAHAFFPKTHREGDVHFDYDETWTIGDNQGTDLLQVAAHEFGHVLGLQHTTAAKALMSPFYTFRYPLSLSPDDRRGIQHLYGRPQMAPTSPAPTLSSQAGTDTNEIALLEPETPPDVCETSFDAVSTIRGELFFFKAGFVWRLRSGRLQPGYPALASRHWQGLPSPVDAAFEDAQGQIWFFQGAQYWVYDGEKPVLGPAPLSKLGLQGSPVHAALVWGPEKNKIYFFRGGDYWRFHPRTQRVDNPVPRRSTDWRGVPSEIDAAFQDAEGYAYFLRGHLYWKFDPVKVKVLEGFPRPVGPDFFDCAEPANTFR
Description: Inhibition of Matrix metalloprotease-11.

Test [1] has as its target Matrix metalloproteinase-14 (Homo sapiens, UniProt P50281). Description: Inhibition of Matrix metalloprotease-14.
The next test deals with Collagenase 3 (Homo sapiens, UniProt P45452). Description: Inhibition of matrix metalloprotease-13.
The next test deals with Neutrophil collagenase (Homo sapiens, UniProt P22894). Put plainly: Inhibition of matrix metalloprotease-8.
Test [2] addresses Matrix metalloproteinase-9 (Homo sapiens, UniProt P14780). Put plainly: Inhibition of Matrix metalloprotease-9.
Test [3] addresses 72 kDa type IV collagenase (Homo sapiens, UniProt P08253). Put plainly: Inhibition of Matrix metalloprotease-2.

A value given as a limit tells only on which side of the number the result lay.

Chain of 72 kDa type IV collagenase (P08253 whole entry): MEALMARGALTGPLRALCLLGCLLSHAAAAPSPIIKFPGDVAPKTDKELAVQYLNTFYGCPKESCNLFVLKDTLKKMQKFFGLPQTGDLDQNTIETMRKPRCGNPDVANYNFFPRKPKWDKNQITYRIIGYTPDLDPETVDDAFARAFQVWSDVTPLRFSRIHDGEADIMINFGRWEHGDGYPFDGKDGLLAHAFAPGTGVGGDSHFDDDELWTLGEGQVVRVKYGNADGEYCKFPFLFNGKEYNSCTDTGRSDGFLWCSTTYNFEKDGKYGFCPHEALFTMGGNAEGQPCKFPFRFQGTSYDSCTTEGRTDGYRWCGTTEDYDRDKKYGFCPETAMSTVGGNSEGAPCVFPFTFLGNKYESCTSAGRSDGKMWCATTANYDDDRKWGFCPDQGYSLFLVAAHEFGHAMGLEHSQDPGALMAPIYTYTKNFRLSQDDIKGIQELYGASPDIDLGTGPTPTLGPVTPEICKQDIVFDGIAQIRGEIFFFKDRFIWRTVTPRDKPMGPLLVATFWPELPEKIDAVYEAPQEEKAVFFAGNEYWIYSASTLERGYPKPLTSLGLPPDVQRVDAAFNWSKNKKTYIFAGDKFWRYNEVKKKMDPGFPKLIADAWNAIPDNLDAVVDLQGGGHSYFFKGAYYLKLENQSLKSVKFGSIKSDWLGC
Chain of Neutrophil collagenase (P22894 whole entry): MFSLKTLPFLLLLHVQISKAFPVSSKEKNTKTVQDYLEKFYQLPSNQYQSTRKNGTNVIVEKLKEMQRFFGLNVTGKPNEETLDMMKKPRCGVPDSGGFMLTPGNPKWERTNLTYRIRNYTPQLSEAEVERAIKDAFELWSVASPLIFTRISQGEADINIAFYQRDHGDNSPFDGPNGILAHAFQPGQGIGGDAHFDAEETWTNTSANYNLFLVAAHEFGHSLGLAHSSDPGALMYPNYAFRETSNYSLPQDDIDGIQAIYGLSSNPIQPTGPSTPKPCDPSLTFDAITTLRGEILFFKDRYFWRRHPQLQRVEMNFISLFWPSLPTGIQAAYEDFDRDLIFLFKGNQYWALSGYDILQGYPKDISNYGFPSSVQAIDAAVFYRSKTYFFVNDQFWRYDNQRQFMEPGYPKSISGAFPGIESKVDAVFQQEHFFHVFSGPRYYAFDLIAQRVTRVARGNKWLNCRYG
Chain of Matrix metalloproteinase-9 (P14780 whole entry): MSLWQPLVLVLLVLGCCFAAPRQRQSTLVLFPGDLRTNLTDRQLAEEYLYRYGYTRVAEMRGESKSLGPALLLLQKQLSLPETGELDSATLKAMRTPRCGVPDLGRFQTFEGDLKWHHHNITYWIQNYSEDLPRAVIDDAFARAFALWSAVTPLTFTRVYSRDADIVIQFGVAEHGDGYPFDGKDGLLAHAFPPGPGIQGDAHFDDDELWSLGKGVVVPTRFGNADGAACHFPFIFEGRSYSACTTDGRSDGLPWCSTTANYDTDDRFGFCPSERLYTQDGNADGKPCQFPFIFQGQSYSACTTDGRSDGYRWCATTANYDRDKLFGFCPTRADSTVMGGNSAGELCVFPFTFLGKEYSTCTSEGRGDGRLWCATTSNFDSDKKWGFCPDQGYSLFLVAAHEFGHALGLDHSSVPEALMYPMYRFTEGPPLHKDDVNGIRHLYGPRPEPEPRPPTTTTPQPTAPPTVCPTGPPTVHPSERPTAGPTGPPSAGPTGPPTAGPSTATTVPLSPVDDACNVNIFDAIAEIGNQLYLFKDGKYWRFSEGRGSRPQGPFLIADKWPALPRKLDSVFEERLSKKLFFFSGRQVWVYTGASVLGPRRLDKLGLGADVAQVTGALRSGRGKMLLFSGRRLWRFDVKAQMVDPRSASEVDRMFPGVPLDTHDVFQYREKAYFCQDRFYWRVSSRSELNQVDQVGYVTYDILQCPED

As a reminder, the Ki is a dissociation constant, usually derived from enzyme kinetics or from competition with a known ligand. High values mean weaker binding, low ones tighter binding. `NC(=O)C(Cc1c[nH]c2ccccc12)NC(=O)C(CCCc1ccccc1)CP(=O)(O)C(Cc1ccccc1)NC(=O)OCc1ccccc1` (stereo not given): the Ki at Matrilysin and at Interstitial collagenase was greater than 2 µM in each case.

On to `COc1ccccc1SCC(CP(=O)(O)C(Cc1ccccc1)NC(=O)OCc1ccccc1)C(=O)NC(Cc1c[nH]c2ccccc12)C(N)=O` (stereo not given), for which the Ki was 0.23 µM on Stromelysin-3; 160 µM in test [1]; 15.7 µM at Collagenase 3; 38.9 µM at Neutrophil collagenase; 35.6 µM in test [2]; 30 µM in test [3].

With `NC(=O)C(Cc1c[nH]c2ccccc12)NC(=O)C(CSc1ccccc1Br)CP(=O)(O)C(Cc1ccccc1)NC(=O)OCc1ccccc1` (stereo not given), the Ki on Stromelysin-3 came out at 0.11 µM; in test [1], 30.1 µM; at Collagenase 3 it was 4.7 µM; on Neutrophil collagenase, 18.4 µM; in test [2] it was 3.91 µM; in test [3], 4.65 µM.

As for `NC(=O)C(Cc1c[nH]c2ccccc12)NC(=O)C(CSc1ccccc1OC(F)(F)F)CP(=O)(O)C(Cc1ccccc1)NC(=O)OCc1ccccc1` (stereo not given), the Ki was 0.41 µM on Stromelysin-3; 30 µM in test [1]; 200 µM on Collagenase 3; 200 µM at Neutrophil collagenase; 148 µM in test [2]; 200 µM in test [3].
